This note sets out measurements from patent publication US12150925B2, “Buthionine sulfoximine and a metallodrug for the treatment of cancer, HIV or a rheumatic disease” (Istituto Superiore di Sanità, priority 2017, dated 2024).

Type in all cases: cell-based
In experiment [1] the test system is Supt-1 T-cells. Nature of the experiment: Microphotographs of treated Supt-1 T-cells (FIG. 3). To be noted: 0.25 μM auranofin with submicromolar BSO (FIG. 3). The source says: FIG. 3 is microphotographs of Supt-1 T-cells treated with different concentrations of auranofin or buthionine sulfoximine.
In the next experiment the test system is Jurkat T-cells. In words: Microphotographs of treated Jurkat T-cells (FIG. 5). The conditions noted are these: auranofin at a clinically-acceptable concentration added to BSO and cisplatin (FIG. 5). The source says:
FIG. 5 is microphotographs of Jurkat T-cells treated with different concentrations of cisplatin, auranofin or buthionine sulfoximine (BSO).

The subject of experiment [2] is Supt-1 T-cells. In words: Viability of Supt-1 T-cells (MTS assay, FIGS. 2 and 6). To be noted: only with 0.5 μM auranofin, with BSO (FIG. 2). As to the method:
FIG. 2 is a graph showing the viability of Supt-1 T-cells treated with different concentrations of auranofin (AU) or buthionine sulfoximine (BSO). Viability was measured 72 hours after treatment with the drugs at the indicated concentrations with the MTS assay. Absorbance values were normalized over untreated controls and expressed as percentage. BSO=buthionine sulfoximine. Concentrations are expressed in μM. Data are expressed as mean t SEM and were analysed by the Turkey posttest following One Way ANOVA. *P<0.05; **P<0.01 ***P<0.001; ****P<0.0001. NS: non-significant. The synergistic index (SI) is expressed where significant differences exist in comparison with the single drug treatments.
FIG. 6 is a graph showing the viability of Supt-1 T-cells treated with different concentrations of cisplatin or buthionine sulfoximine (BSO). Viability was measured 72 hours after treatment with the drugs at the indicated concentrations with the MTS assay. Absorbance values were normalized over untreated controls and expressed as percentage. BSO=buthionine sulfoximine. Concentrations are expressed in μM; Asterisks show the significant differences [*q<0.05; **q<0.01; q is the P value corrected for multiple comparisons by controlling the False Discovery Rate (threshold for significance=q=0.05)]. NS: non-significant. The synergistic index (SI) is expressed where significant differences exist in comparison with the single drug treatments.
In-vitro activity on activated CD4^+ T-cells and leukemia/lymphoma Methods. Resting CD4^+ T-cells, cultured T-cell leukemic Jurkat cells and Sup-T1 cells were left untreated or incubated for 24-72 hours with various concentrations of auranofin and/or buthionine sulfoximine (BSO), or chloroquine (only CD4^+ T-cells) or cisplatin (only Jurkat and Supt-T1 cells) CD4^+ T-cells were then activated by adding phytohemagglutinin (2 μg/mL). Alternatively, CD4^+ T-cells were first activated with anti-CD3/anti-CD28 beads and, after 72 hours, were left untreated or were incubated with auranofin and/or buthionine sulfoximine (BSO), or chloroquine. Cell viability was determined 24-72 hours post-activation with an MTT assay (CellTiter 96@ Non-Radioactive Cell Proliferation Assay) or MTS assay (CellTiter 960 AQueous One Solution Cell Proliferation Assay System; Promega). For the assay, 300×10^5 cells were re-suspended in 100 μL of medium and transferred to a 96-well plate. Cells were then incubated with 20 μL of a substrate solution (One Solution Reagent) for 3-4 hours in a CO2 (5%) incubator at 37° C. For the MTT assay, 100 μL of a Solubilization/Stop Solution were used to stop the reaction. Medium-only containing wells were included to serve as a blank control. Absorbance levels were recorded at 490 nm (MTS) or 570 nm (MTT) and, after subtraction of the blank, absorbance values were expressed as percentage of controls.
Results. The results from the new dosage combinations were compared to the untreated cells as well as the cells treated with single drugs or “classical” dosages, in a multiple comparison analysis. Thus, the statistical significances shown are also significant compared to the untreated cells.
On the technique in general: Tetrazolium dyes change colour on reduction, which living cells bring about.

Take `CC(=O)OC[C@H]1O[C@@H]([S-])[C@H](OC(C)=O)[C@@H](OC(C)=O)[C@@H]1OC(C)=O.CCP(CC)CC.[Au+]` [auranofin]: the cell morphology result in the experiment on Supt-1 T-cells [1] is “morphological alterations linked to poor lymphoblastic cell viability”; in the experiment with Jurkat T-cells it was “increased the aforementioned morphological alterations”. In addition, the “synergism in terms of cell viability” value with Supt-1 T-cells [2] is recorded as “significant synergism”.
